According to patent publication US6034215A, “3-amino-2-oxo-1-piperidnercetic derivatives as enzyme inhibitors” (Corvas International, Inc., priority 1997, dated 2000):
Where two headings read alike, the source gives them in different places.

Experiments:
human α-thrombin = human α-thrombin (Homo sapiens, UniProt P00734); assay: In vitro enzyme assay for specificity: Thrombin (fIIa) assay, IC50; format: biochemical
Method: IC50 determinations were conducted where HBSA (50 μL), α-thrombin (50 μl) and inhibitor (50 μl) (covering a broad concentration range), were combined in appropriate wells and incubated for 30 minutes at room temperature prior to the addition of substrate Pefachrome-t-PA (50 μl).

Human rt-PA (Activase®) = target: T1, Human rt-PA (Activase®) (Homo sapiens, UniProt P00750); assay: In vitro enzyme assay for specificity: recombinant tissue plasminogen activator, IC50; format: biochemical; details: Table 3
T1 construct: purchased Genentech Inc. Activase®

human plasmin = human plasmin (Homo sapiens, UniProt P00747); assay: In vitro enzyme assay for specificity: plasmin assay, IC50; format: biochemical; details: Table 3
Method: Plasmin catalytic activity was determined using the chromogenic substrate, S-2251 (D-valyl-L-leucyl-L-lysine-p-nitroanilide), which was obtained from Kabi Diagnostica.

human aPC = target: T2, human aPC (Homo sapiens, UniProt P04070); assay: In vitro enzyme assay for specificity: activated protein C, IC50; format: biochemical; details: Table 3
T2 construct: purchased Hematologic Technologies, Inc
Method: aPC catalytic activity was determined using the chromogenic substrate, Pefachrome PC (delta-carbobenzloxy-D-lysine -L-prolyl-L-arginine-p-nitroanilide), obtained from Pentapharm Ltd.). […] Purified human aPC was obtained from Hematologic Technologies, Inc. The enzyme was diluted into HBSA prior to assay in which the final concentration was 1.0 nM.

human alpha-thrombin = human alpha-thrombin (Homo sapiens, UniProt P00734); assay: Kinetic analysis in an in vitro thrombin inhibition assay (Ki); format: biochemical; details: Table 1; Mean ± SD, n = 3; steady state velocities over 40 minutes
[1] = target: T3, bovine pancreatic trypsin (Bos taurus, UniProt P00760); assay: In vitro enzyme assay for specificity: trypsin, IC50; format: biochemical; details: Table 2
T3 sequence (P00760 24-246): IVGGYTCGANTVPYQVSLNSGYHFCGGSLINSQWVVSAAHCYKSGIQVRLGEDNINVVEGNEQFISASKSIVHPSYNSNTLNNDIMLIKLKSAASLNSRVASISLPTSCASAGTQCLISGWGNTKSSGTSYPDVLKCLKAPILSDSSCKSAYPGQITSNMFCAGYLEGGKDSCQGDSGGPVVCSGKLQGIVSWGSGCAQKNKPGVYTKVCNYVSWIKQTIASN
Method: Trypsin catalytic activity was determined using the chromogenic substrate, S-2222 (benzoyl-L-isoleucine-L-glutamic acid-(gamma-methyl ester)-L-arginine-p-nitroanilide), which was obtained from Kabi Diagnostica. […] Purified (3×-crystallized; TRL3) bovine pancreatic trypsin was obtained from Worthington Biochemical Corp. The enzyme was reconstituted in deionized water and diluted into HBSA prior to assay in which the final concentration was 0.5 nM.

citrated rat plasma = assay: Anticoagulant effect in rat plasma, activated partial thromboplastin time (APTT) assay; format: biochemical; details: for prolongation of the APTT: rat plasma, broad concentration range of added inhibitor
Method: (§1) The ex vivo anticoagulant effects of BzlSO2 -norVal (cyclo)-Gly-Arg-al(Example 8) and N-(BnSO2 -norLeu (cyclo)-Gly)-L-argininal (Example 34) were determined by measuring the prolongation of the activated partial thromboplastin time (APTT) over a broad concentration range of the added inhibitor, using pooled normal human and rat plasma.
(§2) Fresh frozen citrated pooled normal human plasma was obtained from George King Biomedical, Overland Park, Kans. Pooled normal rat plasma was prepared from citrated whole blood collected from anesthetized rats using standard procedures. The plasma was flash frozen and stored at -80° C. until use.
(§3) Measurements APTT was made using the Coag-A-Mate RA4 automated coagulometer (General Diagnostics, Organon Technica, Oklahoma City, Okla.) using the Automated APTT reagent (Organon Technica, Durham, N.C.) as the initiator of clotting according to the manufacturers instructions. The assay was conducted by making a series of dilutions of the test compounds in rapidly thawed plasma followed by adding 200 microliters to the wells of the assay carousel.

citrated human plasma = assay: Anticoagulant effect in human plasma, activated partial thromboplastin time (APTT) assay; format: biochemical; details: for concentration which caused a doubling of the control clotting time (APTT): citrated human plasma, mean of two independent determinations; for prolongation of the APTT: human plasma, broad concentration range of added inhibitor
Method: as §1, §2, §3

[2] = tested on: FeCl3 -induced Platelet-dependent Arterial Thrombosis; assay: Rat model of FeCl3 -induced platelet-dependent arterial thrombosis; format: in vivo; details: for ED50 for thrombus prevention (dose that prevents complete thrombotic occlusion in 50% of animals tested): rat FeCl3 model of arterial thrombosis; for Incidence of Occlusion: rat
Excerpt: This is a well characterized model of platelet dependent, arterial thrombosis which has been used in the evaluation potential antithrombotic compounds such as direct thrombin inhibitors. Kurz, K. D., Main, B. W., and Sandusky, G. E., Thromb. Res., 60: 269-280 (1990). In this model a platelet-rich, occlusive thrombus is formed in a segment of the rat carotid artery treated locally with a fresh solution of FeCl3 absorbed to a piece of filter paper. The FeCl3 is thought to diffuse into the treated segment of artery and causes de-endothelialization of the affected vessel surface. […] The effect of a test compound on the incidence of occlusive thrombus formation following the application of the FeCl3 is monitored by ultrasonic flowtometry and is used as the primary end point. The use of flowtometry to measure carotid artery blood flow, is a modification of the original procedure in which thermal detection of clot formation was employed. Kurz, K. D., Main, B. W., and Sandusky, G. E., Thromb. Res., 60: 269-280 (1990).
Male Harlan Sprague Dawley rats (420-450 g) were acclimated at least 72 hours prior to use and fasted for 12 hours prior to surgery with free access to water. The animals were prepared, anesthetized with Nembutal followed by the insertion of catheters for blood pressure monitoring, drug and anesthesia delivery. The left carotid artery was isolated by making a midline cervical incision followed by blunt dissection and spreading techniques to separate a 2 cm segment of the vessel from the carotid sheath. A silk suture is inserted under the proximal and distal ends of the isolated vessel to provide clearance for the placement of a ultrasonic flow probe (Transonic) around the proximal end of the vessel. The probe is then secured with a stationary arm.
Following surgery the animals were randomized in either a control (saline) or treatment group with test compound (BzlSO2 -norVal(cyclo)-Gly-Arg-al or N-(BnSO2 -norLeu(cyclo)Gly)-L-argininal)with at least 6 animals per group per dose. The test compound was administered as a single intravenous bolus at the doses outlined in Table 3 after placement of the flow probe and 5 minutes prior to the thrombogenic stimulus. At t=0, a 3 mm diameter piece of filter paper (Whatman #3) soaked with 10 microliters of a 35% solution of fresh FeCl3 (made up in water) was applied the segment of isolated carotid artery distal to the flow probe. Blood pressure, blood flow, heart rate, and respiration were monitored for 60 minutes.
The incidence of occlusion (defined as the attainment of zero blood flow) was recorded as the primary end point.
This allows a direct comparison of the antithrombotic efficacy of BzlSO2 -norVal(cyclo)-Gly-Arg-al and N-(BnSO2 -norLeu(cyclo)-Gly)-L-argininal with other antithrombotic agents which have also been evaluated in this model as described above. Table 6 lists the ED50 values for several well known anticoagulant agents in this model compared to the present compounds.

[3] = Oral activity in dogs: blood levels and bioavailability; format: in vivo, beagle dogs
Method: The pharmacodynamic and pharmacokinetic parameters of the compound of Example 34 were evaluated after oral administration in dogs. Adult beagle dogs (9-12 kg) were housed individually in standard cages, and were fed a standard certified commercial diet and tap water ad libitum. Dogs were given an oral dose of 20 mg/kg test compound, in 55 ml deionized water, via a gastric tube, followed by a water rinse. In a separate protocol, 5 mg/kg of test compound, in 5 ml 0.9% sodium chloride, were administered by fast bolus i.v. injection through an indwelling saphenous vein catheter. The same dogs were used for both routes of administration, with a one week wash out period between use of the dogs for the different protocols. […]
(§4) The blood levels of test compound were measured by extracting the compound from plasma, separation by HPLC, and post-column derivatization with a fluorogenic functional group. The clotting time of blood was measured using an APTT assay, which measures the prolongation of the activated partial thromboplastin time (APTT) by the test compound. […]
The systemic bioavailability of the test compound administered by the oral route was calculated by comparing the AUC values (area under curve describing level of compound in blood over time) after i.v. and oral administration. […]

[4] = tested on: activated partial thromboplastin time (APTT); assay: Oral activity in dogs: clotting time of blood samples by APTT assay; format: in vivo, beagle dogs; details: after oral dosing
Method: The pharmacodynamic and pharmacokinetic parameters of the compound of Example 34 were evaluated after oral administration in dogs. Adult beagle dogs (9-12 kg) were housed individually in standard cages, and were fed a standard certified commercial diet and tap water ad libitum. Dogs were given an oral dose of 20 mg/kg test compound, in 55 ml deionized water, via a gastric tube, followed by a water rinse. In a separate protocol, 5 mg/kg of test compound, in 5 ml 0.9% sodium chloride, were administered by fast bolus i.v. injection through an indwelling saphenous vein catheter. The same dogs were used for both routes of administration, with a one week wash out period between use of the dogs for the different protocols.
After mixing with the anticoagulant, each blood sample was immediately chilled by immersion in a slurry of ice and water. The plasma was separated by centrifugation (4° C., 2400 rpm, 10 min) within 10 min of collection, and then transferred to a cryotube and stored at […] until analysis.
as §4

[5] = Table 3, read-out: IC50 (nM) thrombin
[6] = Table 2, 30-minute incubation with enzyme before substrate, read-out: IC50 alpha-thrombin
[7] = 0.3 mg/kg single intravenous bolus 5 minutes prior to FeCl3, n 6, monitored 60 minutes
[8] = 1.0 mg/kg single intravenous bolus 5 minutes prior to FeCl3, n 6, monitored 60 minutes
[9] = 3.0 mg/kg single intravenous bolus 5 minutes prior to FeCl3, n 6, monitored 60 minutes
[10] = 5.0 mg/kg single intravenous bolus 5 minutes prior to FeCl3, n 6, monitored 60 minutes

T2 sequence (P04070 43-197 limits assumed): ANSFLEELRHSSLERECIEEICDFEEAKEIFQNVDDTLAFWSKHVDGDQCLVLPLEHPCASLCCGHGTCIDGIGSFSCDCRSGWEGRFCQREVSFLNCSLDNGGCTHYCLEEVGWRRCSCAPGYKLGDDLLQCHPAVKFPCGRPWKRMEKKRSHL
T2 sequence (P04070 212-461 limits assumed): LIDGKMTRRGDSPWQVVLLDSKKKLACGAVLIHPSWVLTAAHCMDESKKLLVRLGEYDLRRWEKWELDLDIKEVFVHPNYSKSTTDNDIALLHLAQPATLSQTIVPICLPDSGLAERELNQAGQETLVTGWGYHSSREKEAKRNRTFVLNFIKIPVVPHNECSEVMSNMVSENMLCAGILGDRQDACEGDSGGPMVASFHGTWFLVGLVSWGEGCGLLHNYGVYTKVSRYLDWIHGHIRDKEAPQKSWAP
Chain of human plasmin (P00747 97-580 limits assumed): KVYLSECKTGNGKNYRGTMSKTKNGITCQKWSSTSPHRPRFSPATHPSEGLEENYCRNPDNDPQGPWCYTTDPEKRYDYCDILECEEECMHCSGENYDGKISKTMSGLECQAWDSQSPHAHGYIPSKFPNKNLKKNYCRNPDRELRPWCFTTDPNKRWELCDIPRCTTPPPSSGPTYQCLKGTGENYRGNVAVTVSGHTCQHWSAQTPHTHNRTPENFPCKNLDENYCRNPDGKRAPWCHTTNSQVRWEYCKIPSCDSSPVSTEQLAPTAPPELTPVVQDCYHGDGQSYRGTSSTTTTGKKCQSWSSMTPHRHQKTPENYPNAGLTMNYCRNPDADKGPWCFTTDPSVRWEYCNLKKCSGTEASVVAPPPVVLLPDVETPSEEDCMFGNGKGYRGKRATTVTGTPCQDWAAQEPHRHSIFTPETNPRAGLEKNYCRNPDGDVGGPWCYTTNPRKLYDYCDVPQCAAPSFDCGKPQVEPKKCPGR
Chain of human plasmin (P00747 581-810 limits assumed): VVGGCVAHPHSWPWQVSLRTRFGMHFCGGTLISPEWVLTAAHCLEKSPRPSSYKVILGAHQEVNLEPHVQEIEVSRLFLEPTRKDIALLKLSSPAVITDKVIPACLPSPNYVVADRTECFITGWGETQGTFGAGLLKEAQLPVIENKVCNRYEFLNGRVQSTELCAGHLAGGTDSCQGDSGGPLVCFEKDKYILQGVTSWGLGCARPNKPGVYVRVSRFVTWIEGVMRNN
T1 sequence (P00750 36-562): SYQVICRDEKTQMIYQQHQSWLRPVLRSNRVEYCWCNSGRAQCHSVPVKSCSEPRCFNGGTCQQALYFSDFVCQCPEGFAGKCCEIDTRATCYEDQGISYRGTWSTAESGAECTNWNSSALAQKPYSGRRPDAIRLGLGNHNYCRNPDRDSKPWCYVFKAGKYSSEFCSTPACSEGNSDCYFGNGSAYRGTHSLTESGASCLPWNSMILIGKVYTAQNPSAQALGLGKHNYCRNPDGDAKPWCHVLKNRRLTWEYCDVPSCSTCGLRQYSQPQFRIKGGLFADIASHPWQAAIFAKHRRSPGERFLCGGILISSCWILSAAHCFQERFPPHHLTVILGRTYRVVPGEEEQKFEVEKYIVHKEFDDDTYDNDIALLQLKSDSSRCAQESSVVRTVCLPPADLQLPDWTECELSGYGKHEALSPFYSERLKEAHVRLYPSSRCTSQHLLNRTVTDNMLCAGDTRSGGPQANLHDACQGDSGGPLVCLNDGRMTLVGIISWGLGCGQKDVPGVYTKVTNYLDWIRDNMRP

| Structure (SMILES) | IC50 (human α-thrombin; [5]) [nM] | IC50 (Human rt-PA (Activase®)) [nM] | IC50 (human plasmin) [nM] | IC50 (human aPC) [nM] | IC50 [1] [µM] | other results |
| --- | --- | --- | --- | --- | --- | --- |
| NC(N)=NCCC[C@@H](C=O)NC(=O)CN1CCCCC(NS(=O)(=O)Nc2ccccc2)C1=O (stereo partly drawn) [Example 36(n), N-(phenylamino-SO2 -norLeu(cyclo)-Gly)-L-argininal] | 14.2 |  | > 2500 |  |  |  |
| NC(N)=NCCC[C@@H](C=O)NC(=O)CN1CCCCC(NS(=O)(=O)CC2CCCCC2)C1=O (stereo partly drawn) [Example 36(i), N-(cyclohexylmethyl-SO2 -norLeu(cyclo)-Gly)-L-argininal] |  |  | > 2500 |  | 0.00786 | IC50 (human α-thrombin; [6]): 4.54 nM |
| NC(N)=NCCC[C@@H](C=O)NC(=O)CN1CCCCC(N)(Cc2ccccc2)C1=O (stereo partly drawn) [Example 64, N-[D,.L-3-Amino-3-benzyl-hexahydro-2-oxo-azepine-1-acetyl]-L-argininal] | 5.41 | > 2500 | > 2500 | > 2500 |  |  |
| NC(N)=NCCC[C@@H](C=O)NC(=O)CN1CCCC(NS(=O)(=O)Cc2ccccc2)C1=O (stereo partly drawn) [Example 8, N-benzylsulfonyl-norVal(cyclo)-Gly-L-argininal] |  | > 2500 |  | > 2500 | 1.55 | concentration which caused a doubling of the control clotting time (APTT) (citrated rat plasma; citrated rat plasma, control clotting time 20 sec, mean of two independent determinations): 22.1 µM; prolongation of the APTT (citrated rat plasma): prolonged the APTT in a dose-dependent manner; concentration which caused a doubling of the control clotting time (APTT) (citrated human plasma): 12.8 µM; prolongation of the APTT (citrated human plasma): prolonged the APTT in a dose-dependent manner; ED50 for thrombus prevention (dose that prevents complete thrombotic occlusion in 50% of animals tested) [2]: 0.75 mg/kg; Incidence of Occlusion [2, 7]: 6/6; Incidence of Occlusion [2, 8]: 2/6; Incidence of Occlusion [2, 9]: 1/6; Incidence of Occlusion [2, 10]: 0/6 |

More lines, main results first:

| IC50 (human α-thrombin; [5]) [nM] | IC50 (Human rt-PA (Activase®)) [nM] | IC50 (human plasmin) [nM] | IC50 (human aPC) [nM] | IC50 [1] [µM] | Structure (SMILES) | other results |
| --- | --- | --- | --- | --- | --- | --- |
| 1.71 |  |  |  |  | Cc1ccccc1CS(=O)(=O)NC1CCCN(CC(=O)N[C@H](C=O)CCCNC(=N)N)C1=O (stereo partly drawn) [Example 36(q), N-(2-methylbenzyl-SO2-norLeu(cyclo)-Gly)-L-argininal] |  |
| 5.41 | > 2500 | > 2500 | > 2500 |  | NC(N)=NCCC[C@@H](C=O)NC(=O)CN1CCCC(N)(Cc2ccccc2)C1=O (stereo partly drawn) [Example 55, N-[D, L-3-Amino-3-benzyl-2-oxo-1-piperidineacetyl]-L-argininal] |  |
| 1.9 | > 2500 | > 2500 | > 2500 |  | N=C(N)NCCC[C@@H](C=O)NC(=O)CN1CCCC(NS(=O)(=O)Cc2cccc(C(F)(F)F)c2)C1=O (stereo partly drawn) [Example 36(p), N-(3-trifluoromethylbenzyl-SO2-norLeu(cyclo)-Gly)-L-argininal] |  |
| 0.71 |  |  |  | 0.072 | NC(N)=NCCC[C@@H](C=O)NC(=O)CN1CCCCC(NS(=O)(=O)Cc2ccccc2)C1=O (stereo partly drawn) [Example 34, N-(BnSO2 -norLeu(cyclo)-Gly)-L-argininal] | Ki (human alpha-thrombin): 0.000538 ± 8e-05 µM; IC50 (human α-thrombin; [6]): 0.93 nM; prolongation of the APTT (citrated rat plasma): prolonged the APTT in a dose-dependent manner; concentration which caused a doubling of the control clotting time (APTT) (citrated human plasma): 4.5 µM; prolongation of the APTT (citrated human plasma): prolonged the APTT in a dose-dependent manner; ED50 for thrombus prevention (dose that prevents complete thrombotic occlusion in 50% of animals tested) [2]: 2.1 mg/kg; Incidence of Occlusion [2, 7]: 6/6; Incidence of Occlusion [2, 8]: 6/6; Incidence of Occlusion [2, 9]: 2/6; Incidence of Occlusion [2, 10]: 2/6; time at which blood level of compound reached maximum levels ([3]; after administration): 30 to 40 min; systemic bioavailability (ratio of AUC oral to AUC i.v.) ([3]; oral 20 mg/kg vs i.v. 5 mg/kg, corrected for difference in dose): approximately 66%; time to significant elevation of APTT [4]: 20 to 30 min |
| 0.93 |  |  |  |  | Cc1cccc(CS(=O)(=O)NC2CCCCN(CC(=O)N[C@H](C=O)CCCN=C(N)N)C2=O)c1 (stereo partly drawn) [Example 36(r), N-(3-methylbenzyl-SO2-norLeu(cyclo)-Gly)-L-argininal] |  |
| 3.09 | > 2500 | > 2500 | > 2500 |  | N=C(N)NCCC[C@@H](C=O)NC(=O)CN1CCC[C@H](NCCc2ccccc2)C1=O [Example 72(a), N-[(S)-3-N-phenylethylamino-2-oxo-1-piperidineacetyl]-L-argininal] |  |
